Measurements reported in paper PMC9024338, “Bruceine H Mediates EGFR-TKI Drug Persistence in NSCLC by Notch3-Dependent β-Catenin Activating FOXO3a Signaling” (Frontiers in Oncology, 2022).
Read-outs that look alike come from different tables or passages of the source.

Assays:
A549 cells [1] = test: cells; format: cell-based, human; conditions: Homo sapiens
Protocol: (§1) The human NSCLC cell lines (A549, PC-9, and PC-9/GR) and other cell lines (16HBE and LO2) were purchased from the American Type Culture Collection (ATCC, Manassas, VA, USA). […] All cell lines were cultivated at 37°C under 5% CO2.
(§2) The Cell Counting Kit-8 assays (Beyotime, Shanghai, China) were performed to assess cell viability. […] Microplate readers (Infinite F500, Tecan, Mannedorf, Switzerland) were used to measure the absorbance (A) at 450 nm. All samples were assessed in triplicate.

PC-9 cells [2] = test: cells; format: cell-based, human; conditions: Homo sapiens
Protocol: as §1, §2

A549 cells [3] = test: Wound healing assay for migration; format: cell-based, human; conditions: 4 μM, 48 h
Protocol: A549 cells (3 × 10^5/ml/well) were seeded into a six-well plate. After overnight culture, when the fusion rate reached 95%–100%, the sterile pipette tip was perpendicular to the plate plane, and a straight wound was drawn on the cell monolayer. Following treatment with BD or BH, the migration of the cells was examined under a microscope (×4, Nikon, Tokyo, Japan), and pictures were obtained at 0 and 48 h. The computation of the cell migration formula is as follows: relative migration area (%) = (0 h wound area – 48 h wound area)/0 h wound area × 100%.

A549 cells [4] = test: Transwell migration and Matrigel invasion assays; format: cell-based, human; conditions: dose-dependent, 12 h treatment
Protocol: The Transwell insert in a 24-well plate (8 μm, Corning, NY, USA) was taken out, and a 600-μl medium containing 10% FBS was added to the bottom chamber. The A549 cells were resuspended with 10% FBS culture medium, and the diluted cell suspension (3 × 10^5/300 μl) was cultured in the top chamber and then incubated with or without Matrigel (BD BioCoat). After 12 h, the medium in the top chamber was changed to RPMI-1640 without FBS, and BD or BH with different concentrations was added ([31]). After an additional 12 h, the cells that migrated or invaded the bottom side of the polycarbonate film were fixed with methanol for 30 min and then stained for 15 min with 0.1% crystal violet (Solarbio), after which their number was assessed under a microscope (×4, Nikon).

PC-9 cells [5] = test: Apoptosis by flow cytometry (Annexin V-FITC/PI), PC-9; format: cell-based, human; conditions: PC-9, 48 h, various concentrations, relative to control
Protocol: After being digested with trypsin without EDTA, the cells were washed gently with culture medium and twice with cold PBS. The pellet was resuspended in 400 μl of 1× binding buffer, the resuspended cells were transferred to flow tubes, then Annexin V-FITC (5 μl) and propidium iodide (10 μl) were added, and the mixture was incubated for 15 min at room temperature in the dark. The percentage of apoptotic cells was determined by flow cytometry (Backman, CA, USA) and FlowJo V10 software.

PC-9/GR xenografts = PC-9/GR xenografts in BALB/c nude mice; format: in vivo; conditions: BH 2.5 mg/kg, gefitinib 25 mg/kg, alone or co-administered, intragastric

## CC1=CC(=O)[C@@H](O)[C@]2(C)[C@H]3[C@@H](O)[C@H](O)[C@@]4(CO)OC[C@@]35[C@@H](C[C@@H]12)OC(=O)[C@H](O)[C@]54O [BH, Bruceine H]
A549 cells [1]; A549, 24 h, Figure 2A, read-out: IC50 (24h)
  IC50: 44.4 µM
A549 cells [1]; A549, 48 h, read-out: IC50 (48 h)
  IC50: 25.5 µM
PC-9 cells [2]; PC-9, 24 h, Figure 2A, read-out: IC50 (24h)
  IC50: 55.4 µM
PC-9 cells [2]; PC-9, 48 h, read-out: IC50
  IC50: 12.6 µM
A549 cells [3]
  migration of A549 cells (wound healing): impaired
A549 cells [4]
  Transwell migration and invasion of A549: significant anti-invasive and antimigratory actions
PC-9 cells [5]
  late apoptotic rate: increased
PC-9/GR xenografts
  tumor growth of PC-9/GR xenografts: slight inhibitory effect
